The target of this test is T1, main protease (M^pro) of SARS-CoV2 virus (Severe acute respiratory syndrome coronavirus 2, UniProt P0DTD1).
T1 construct: 30 μl of 3CL Protease enzyme solution (0.05 ng/ul) was mixed with 10 μl of peptides; purchased BPS Bioscience 78042-1
Kind of test: biochemical.

No end group written: not given here.

What is called IC50 is the concentration needed to halve the response being measured. Lower therefore signals greater potency in that assay.

As to PVHPQMQTETGTAHC [Peptide M14], the IC50 is 1200 µM.
The value for RQDLDYQRRRGAGISSTLVQSRK [Peptide M3] was 750 µM.

Values taken from patent US20240060986A1, “METHOD FOR SELECTING PEPTIDE […] ON PROTEIN CYTOTOXICITY” (priority 2022, published 2024).
